ChEMBL document CHEMBL5344403, “Discovery and evaluation of phenacrylanilide derivatives as novel potential anti-liver fibrosis agents” (Eur J Med Chem, 2022)
Calls of active or inactive are those of the source. The calls are words filed in the database; no cut-off is given here.

Experiments:
LX-2 [1] = experiment: Inhibition of TGF-beta1-induced human LX2 activation at 20 uM pretreated with TGF-beta1 for 1 hr followed by compound addition and measured after 72 hrs by CCK-8 assay relative to control; format: functional
[2] = Antiproliferative activity against human LX2 cells assessed as cell survival rate at 20 uM incubated for 72 hrs by CCK-8 assay; format: toxicity, cell-based; details: LX-2 cells, read-out: Activity
LX-2 [3] = experiment: Antifibrotic activity against TGF-beta1 induced human LX2 cells assessed as reduction of alpha-SMA expression at 20 uM pretreated with TGF-beta1 for 1 hr followed by compound addition and measured after 24 hrs by Western blot analysis; format: functional, cell-based
LX-2 [4] = experiment: Antifibrotic activity against TGF-beta1 induced human LX2 cells assessed as reduction of fibronectin expression at 20 uM pretreated with TGF-beta1 for 1 hr followed by compound addition and measured after 24 hrs by Western blot analysis; format: functional, cell-based
[5] = Antiproliferative activity against human LO2 cells assessed as inhibition of cell growth incubated for 72 hrs by CCK-8 assay; format: toxicity, cell-based; details: LO2 (L02) cells
Mus musculus [6] = experiment: Anti-hepatic fibrosis activity in CCL4-induced C57BL/6J mouse hepatic fibrosis model assessed as reduction in liver injury at 15 to 30 mg/kg, po measured for 3 weeks; format: functional, organism-based; details: dose 15-30 mg/kg
Mus musculus [7] = experiment: Anti-hepatic fibrosis activity in CCL4-induced C57BL/6J mouse hepatic fibrosis model assessed as reduction in liver weight coefficient at 15 to 30 mg/kg, po measured for 3 weeks; format: functional, organism-based; details: dose 15-30 mg/kg
Mus musculus [8] = experiment: Anti-hepatic fibrosis activity in CCL4-induced C57BL/6J mouse hepatic fibrosis model assessed as decrease in serum ALT level at 15 to 30 mg/kg, po measured for 3 weeks; format: functional, organism-based; details: dose 15-30 mg/kg
Mus musculus [9] = experiment: Anti-hepatic fibrosis activity in CCL4-induced C57BL/6J mouse hepatic fibrosis model assessed as decrease in serum AST level at 15 to 30 mg/kg, po measured for 3 weeks; format: functional, organism-based; details: dose 15-30 mg/kg
Mus musculus [10] = experiment: Anti-hepatic fibrosis activity in CCL4-induced C57BL/6J mouse hepatic fibrosis model assessed as decrease in serum CHO level at 15 to 30 mg/kg, po measured for 3 weeks; format: functional, organism-based; details: dose 15-30 mg/kg
Mus musculus [11] = experiment: Anti-hepatic fibrosis activity in CCL4-induced C57BL/6J mouse hepatic fibrosis model assessed as decrease in serum TG level at 15 to 30 mg/kg, po measured for 3 weeks; format: functional, organism-based; details: dose 15-30 mg/kg
Mus musculus [12] = experiment: Anti-hepatic fibrosis activity in CCL4-induced C57BL/6J mouse hepatic fibrosis model assessed as improvement in liver structural damage at 15 to 30 mg/kg, po measured for 3 weeks by H and E staining based analysis; format: functional, organism-based; details: dose 15-30 mg/kg
Mus musculus [13] = experiment: Anti-hepatic fibrosis activity in CCL4-induced C57BL/6J mouse hepatic fibrosis model assessed as improvement in inflammatory cell infiltration at 15 to 30 mg/kg, po measured for 3 weeks by H and E staining based analysis; format: functional, organism-based; details: dose 15-30 mg/kg
Mus musculus [14] = experiment: Anti-hepatic fibrosis activity in CCL4-induced C57BL/6J mouse hepatic fibrosis model assessed as decrease in collagen deposition in liver at 15 to 30 mg/kg, po measured for 3 weeks by Masson's trichome staining based analysis; format: functional, organism-based; details: dose 15-30 mg/kg
Mus musculus [15] = experiment: Anti-hepatic fibrosis activity in CCL4-induced C57BL/6J mouse hepatic fibrosis model assessed as decrease in collagen deposition in liver at 15 to 30 mg/kg, po measured for 3 weeks by sirius red staining based analysis; format: functional, organism-based; details: dose 15-30 mg/kg
Mus musculus [16] = experiment: Anti-hepatic fibrosis activity in CCL4-induced C57BL/6J mouse hepatic fibrosis model assessed as downregulation of collagen mRNA expression at 30 mg/kg, po measured for 3 weeks by qRT-PCR analysis; format: functional, organism-based
Mus musculus [17] = experiment: Anti-hepatic fibrosis activity in CCL4-induced C57BL/6J mouse hepatic fibrosis model assessed as downregulation of alpha-SMA mRNA expression at 30 mg/kg, po measured for 3 weeks by qRT-PCR analysis; format: functional, organism-based
Mus musculus [18] = experiment: Anti-hepatic fibrosis activity in CCL4-induced C57BL/6J mouse hepatic fibrosis model assessed as downregulation of TGF-beta1 mRNA expression at 30 mg/kg, po measured for 3 weeks by qRT-PCR analysis; format: functional, organism-based
Mus musculus [19] = experiment: Anti-hepatic fibrosis activity in CCL4-induced C57BL/6J mouse hepatic fibrosis model assessed as downregulation of alpha-SMA level at 30 mg/kg, po measured for 3 weeks by Western blot analysis; format: functional, organism-based
Mus musculus [20] = experiment: Anti-hepatic fibrosis activity in CCL4-induced C57BL/6J mouse hepatic fibrosis model assessed as downregulation of collagen level at 30 mg/kg, po measured for 3 weeks by Western blot analysis; format: functional, organism-based
Mus musculus [21] = experiment: Anti-hepatic fibrosis activity in CCL4-induced C57BL/6J mouse hepatic fibrosis model assessed as downregulation of collagen level in liver at 30 mg/kg, po measured for 3 weeks by immunohistochemical analysis; format: functional, organism-based
Mus musculus [22] = experiment: Anti-hepatic fibrosis activity in CCL4-induced C57BL/6J mouse hepatic fibrosis model assessed as downregulation of alpha-SMA level in liver at 30 mg/kg, po measured for 3 weeks by immunohistochemical analysis; format: functional, organism-based
Mus musculus [23] = experiment: Inhibition of epithelial mesenchymal transition in CCL4-induced C57BL/6J mouse hepatic fibrosis model assessed as […] in N-cadherin protein expression at 15 to 30 mg/kg, po measured for 3 weeks; format: functional, organism-based; details: dose 15-30 mg/kg
Mus musculus [24] = experiment: Inhibition of epithelial mesenchymal transition in CCL4-induced C57BL/6J mouse hepatic fibrosis model assessed as decrease in vimentin protein expression at 15 to 30 mg/kg, po measured for 3 weeks; format: functional, organism-based; details: dose 15-30 mg/kg
Mus musculus [25] = experiment: Antifibrotic activity against CCL4-induced C57BL/6J mouse hepatic fibrosis model assessed as reduction in F4/80+CD11b+ in macrophage at 15 mg/kg, po measured for 3 weeks by flow cytometry analysis relative to control; format: functional; set-up: scale not given: the % may be the effect or the level left
Mus musculus [26] = experiment: Antifibrotic activity against CCL4-induced C57BL/6J mouse hepatic fibrosis model assessed as reduction in F4/80+CD11b+ in macrophage at 30 mg/kg, po measured for 3 weeks by flow cytometry analysis relative to control; format: functional; set-up: scale not given: the % may be the effect or the level left
Mus musculus [27] = experiment: Antifibrotic activity against CCL4-induced C57BL/6J mouse hepatic fibrosis model assessed as reduction in CD69/CD4 in Th1 cell cells at 15 mg/kg, po measured for 3 weeks by flow cytometry analysis relative to control; format: functional; set-up: scale not given: the % may be the effect or the level left
Mus musculus [28] = experiment: Antifibrotic activity against CCL4-induced C57BL/6J mouse hepatic fibrosis model assessed as reduction in CD69/CD4 in Th1 cell cells at 30 mg/kg, po measured for 3 weeks by flow cytometry analysis relative to control; format: functional; set-up: scale not given: the % may be the effect or the level left
Mus musculus [29] = experiment: Antifibrotic activity against CCL4-induced C57BL/6J mouse hepatic fibrosis model assessed as reduction in CD69/CD8 in […] cell cells at 15 mg/kg, po measured for 3 weeks by flow cytometry analysis relative to control; format: functional; set-up: scale not given: the % may be the effect or the level left
Mus musculus [30] = experiment: Antifibrotic activity against CCL4-induced C57BL/6J mouse hepatic fibrosis model assessed as reduction in CD69/CD8 in […] cell cells at 30 mg/kg, po measured for 3 weeks by flow cytometry analysis relative to control; format: functional; set-up: scale not given: the % may be the effect or the level left
Mus musculus [31] = experiment: Antifibrotic activity against CCL4-induced C57BL/6J mouse hepatic fibrosis model assessed as reduction in CD11b/Gr-1 in MDSC cells at 15 mg/kg, po measured for 3 weeks by flow cytometry analysis relative to control; format: functional; set-up: scale not given: the % may be the effect or the level left
Mus musculus [32] = experiment: Antifibrotic activity against CCL4-induced C57BL/6J mouse hepatic fibrosis model assessed as reduction in CD11b/Gr-1 in MDSC cells at 30 mg/kg, po measured for 3 weeks by flow cytometry analysis relative to control; format: functional; set-up: scale not given: the % may be the effect or the level left
[33] = Toxicity in CCL4-induced C57BL/6J mouse assessed as effect on body weight at 15 to 30 mg/kg, po; format: organism-based; details: in vivo, dose 15-30 mg/kg
[34] = Toxicity in CCL4-induced C57BL/6J mouse assessed as effect on creatinine level at 15 to 30 mg/kg, po; format: organism-based; details: in vivo, dose 15-30 mg/kg
[35] = Toxicity in CCL4-induced C57BL/6J mouse assessed as effect on uric acid level at 15 to 30 mg/kg, po; format: organism-based; details: in vivo, dose 15-30 mg/kg
[36] = Toxicity in CCL4-induced C57BL/6J mouse assessed as effect on urea level at 15 to 30 mg/kg, po; format: organism-based; details: in vivo, dose 15-30 mg/kg
[37] = Toxicity in CCL4-induced po dosed C57BL/6J mouse assessed as decrease in spleen weight coefficient; format: organism-based; details: in vivo, dose 15-30 mg/kg
[38] = Toxicity in CCL4-induced po dosed C57BL/6J mouse assessed as inflammatory cell infiltration in heart at 15 to 30 mg/kg, po by H and E staining based analysis; format: organism-based; details: in vivo, dose 15-30 mg/kg
[39] = Toxicity in CCL4-induced po dosed C57BL/6J mouse assessed as inflammatory cell infiltration in spleen at 15 to 30 mg/kg, po by H and E staining based analysis; format: organism-based; details: in vivo, dose 15-30 mg/kg
[40] = Toxicity in CCL4-induced po dosed C57BL/6J mouse assessed as inflammatory cell infiltration in lung at 15 to 30 mg/kg, po by H and E staining based analysis; format: organism-based; details: in vivo, dose 15-30 mg/kg

COc1ccc(/C=C/C(=O)Nc2cccc(C(=O)NC3CCCC3)c2)cc1
inhibition at 20 µM (LX-2 [1]): 30.3%
viability at 72 h, 20 µM [2]: 77.5%
Activity (LX-2 [3]): Active
Activity (LX-2 [4]): Active
IC50 at 72 h [5]: 105 µM
Activity (Mus musculus [6]): Active
Activity (Mus musculus [7]): Active
Activity (Mus musculus [8]): Active
Activity (Mus musculus [9]): Active
Activity (Mus musculus [10]): Active
Activity (Mus musculus [11]): Active
Activity (Mus musculus [12]): Active
Activity (Mus musculus [13]): Active
Activity (Mus musculus [14]): Active
Activity (Mus musculus [15]): Active
Activity (Mus musculus [16]): Active
Activity (Mus musculus [17]): Active
Activity (Mus musculus [18]): Active
Activity (Mus musculus [19]): Active
Activity (Mus musculus [20]): Active
Activity (Mus musculus [21]): Active
Activity (Mus musculus [22]): Active
inhibition (Mus musculus [23]): Active
Activity (Mus musculus [24]): Active
Activity (Mus musculus [25]): 5.11%
Activity (Mus musculus [26]): 4.8%
Activity (Mus musculus [27]): 1.21%
Activity (Mus musculus [28]): 1.19%
Activity (Mus musculus [29]): 1.54%
Activity (Mus musculus [30]): 1.45%
Activity (Mus musculus [31]): 1.9%
Activity (Mus musculus [32]): 1.86%
Activity [33]: Non-Toxic
Activity [34]: Non-Toxic
Activity [35]: Non-Toxic
Activity [36]: Non-Toxic
Activity [37]: Dose-Dependent Effect
Activity [38]: Non-Toxic
Activity [39]: Non-Toxic
Activity [40]: Non-Toxic
